Measurements from PubChem BioAssay AID449745 (Broad Institute, 2010).
Inconclusive results are not listed. Active and inactive are the calls of the source. How the calls were made is not given here.

Target: Zinc finger protein mex-5 (Caenorhabditis elegans) (UniProt Q9XUB2)
Assay: retest of MEX-5 TCR-2 binding inhibitors, confirmation, biochemical, C. elegans, fluorescence polarization, dose retest (AID 449745);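 further: potency is for blocking Mex-5 binding to labeled TCR2 RNA like unlabeled competitor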
Settings: Mex-5 / TCR-2 RNA binding

Chain of Zinc finger protein mex-5 (Caenorhabditis elegans) (Q9XUB2 whole entry, looked up): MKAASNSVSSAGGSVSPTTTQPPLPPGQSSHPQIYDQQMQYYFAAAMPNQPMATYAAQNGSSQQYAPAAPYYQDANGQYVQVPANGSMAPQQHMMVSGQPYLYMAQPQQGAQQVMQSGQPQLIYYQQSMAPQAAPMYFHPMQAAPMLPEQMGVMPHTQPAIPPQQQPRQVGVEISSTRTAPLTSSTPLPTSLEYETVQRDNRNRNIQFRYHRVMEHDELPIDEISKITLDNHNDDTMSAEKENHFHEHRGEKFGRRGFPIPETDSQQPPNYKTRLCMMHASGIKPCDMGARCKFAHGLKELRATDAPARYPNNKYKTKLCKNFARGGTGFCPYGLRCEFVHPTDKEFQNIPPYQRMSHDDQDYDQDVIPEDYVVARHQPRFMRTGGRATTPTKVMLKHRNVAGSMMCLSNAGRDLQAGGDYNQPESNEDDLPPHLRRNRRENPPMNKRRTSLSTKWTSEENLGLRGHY

Structure (SMILES) | AC50
CC1(C)CC(=O)C2=C(C1)N=c1s/c(=C/c3ccc(F)c(F)c3)c(=O)n1C2c1ccc(F)cc1 (stereo unspecified) | > 38 µM (inactive)
CC(C)CN1CCN(Cc2cccc3ncccc23)CC1CCO (stereo unspecified) | > 38 µM (inactive)
Cc1ccccc1C(=O)N=c1ccn(-c2nc3ccccc3nc2NS(=O)(=O)c2ccccc2)cc1 | > 38 µM (inactive)
Oc1[nH]c2ccccc2c1N=NC(=S)N1CCOCC1 | 6.32 µM
CC1=Nc2cccc3cccc(c23)N1C | > 38 µM (inactive)
CCOC(=O)/C(C#N)=C\c1ccc(N2CCN(C/C=C/c3ccccc3)CC2)cc1 | 7.9 µM
Cc1ccc(C(=O)N/C(=C\c2ccc(-c3ccc([N+](=O)[O-])cc3)o2)C(=O)NC2CCS(=O)(=O)C2)cc1 (stereo unspecified) | > 38 µM (inactive)
Nc1nnnn1/N=C/c1cc(Cl)ccc1O | 37.5 µM
Cc1c(C(=O)NNC(=S)Nc2ccc(S(N)(=O)=O)cc2)oc2ccccc12 | 12.1 µM
CC[n+]1c(/C=C/C=C/c2ccc(N(C)C)cc2)sc2ccccc21 | 18.8 µM
N#C/C(=C\c1cccs1)C(=O)Nc1ccccn1 | 32.6 µM
O=C(NNC(=O)c1ccccc1O)c1ccc(S(=O)(=O)Nc2ccccc2)cc1 | 11.4 µM
COc1ccc2c(c1)NP(=S)(Oc1ccccc1)N2 (stereo unspecified) | 12.8 µM
O=C1c2cccc3cccc(c23)C(=O)C1(O)O | 15.6 µM
COCC1CCN(Cc2c(C(=O)N3CCc4ccccc4C3)nc3ccc(Cl)cn23)C1 (stereo unspecified) | 21.5 µM
CCc1ccc[n+](-c2[nH]c(=O)sc2/C=N/NC([S-])=Nc2ccccc2)c1 | 4.63 µM
CN1C(=O)/C(=C/c2cn(CC(=O)N3CCCCC3)c3ccccc23)c2ccccc21 | > 38 µM (inactive)
CCCCCCc1cc2cc(C(=O)NC)c(=N)oc2cc1O | 6.09 µM
CCOC(=O)c1c(-c2ccc(C)o2)csc1NC(=S)NC(=O)c1cccs1 | > 38 µM (inactive)
N#CC1=C(N)N2C(=C(C#N)C1c1ccccc1)Sc1ccccc12 (stereo unspecified) | 5.23 µM
COc1ccc(/C=C/C(=O)c2c(O)n(CCC3=CCCCC3)c(=O)[nH]c2=O)cc1 | > 38 µM (inactive)
O=C(NC(=S)NNS(=O)(=O)c1ccccc1)c1ccc([N+](=O)[O-])cc1 | 34.2 µM
Cc1nc2ccccc2n1/N=C/c1ccc([N+](=O)[O-])s1 | > 38 µM (inactive)
O=C(O)c1c2c(nc3ccccc13)/C(=C/c1ccc(O)cc1)CC2 | 36.4 µM
CC1=NN2C(=N)/C(=C\c3ccc(SCc4ccccc4)o3)C(=O)N=C2S1 | 38 µM
COc1ccc(/C=C2\SC(=O)NC2=S)cc1OC | 20 µM

Structure (SMILES) | AC50
O=C1CSC(=S)N1/N=C/c1cc(Br)c(O)c(Br)c1 | > 38 µM (inactive)
CCc1cc(-c2n[nH]c(CCC(=O)O)c2-c2nc3ccccc3n2C)c(O)cc1O | 12.1 µM
Oc1ccc(N=Nc2n[nH]c(-c3ccccc3)n2)cc1 | 4.21 µM
O=C(Nc1ccc2nc(-c3ccco3)c(-c3ccco3)nc2c1)N1CCN(c2ccccn2)CC1 | > 38 µM (inactive)
O=C(O)c1cc(O)c2c(c1)[C@@H]([C@H]1c3cc(C(=O)O)cc(O)c3C(=O)c3c(O[C@@H]4O[C@H](CO)[C@@H](O)[C@H](O)[C@H]4O)cccc31)c1cccc(OC3O[C@H](CO)[C@@H](O)[C@H](O)[C@H]3O)c1C2=O (stereo partly specified) | 1.52 µM
Cc1nnc(SCc2nc3sc4c(c3c(=O)[nH]2)CCCC4)n(N)c1=O | > 38 µM (inactive)
COc1cc2c(cc1N/C=C(\C#N)c1nc(-c3ccc(F)cc3)cs1)oc1ccccc12 | > 38 µM (inactive)
CCCCOc1ccc(-c2cc(C(F)(F)F)c(C#N)c(SCC(=O)O)n2)cc1 | 11.8 µM
O=C(/C=C/Nc1ccc(S(=O)(=O)Nc2cnc3ccccc3n2)cc1)c1ccccc1 | > 38 µM (inactive)
CC(C)(C)OC(=O)NCCCC1=CC2=CC(=O)C(C)(O)C(=O)C2=CO1 (stereo unspecified) | 19.3 µM
O=Cc1ccc2ccc3cccnc3c2n1 | 30.2 µM
O=C(O)CCN1C(=O)/C(=C\c2ccc(-c3nc4ccccc4s3)o2)SC1=S | 3.89 µM
CN(C)c1ccc(/C=N/NC(=O)c2cnc3ccccc3c2)cc1 | 31.7 µM
CN(C)c1ccc(C(c2nnnn2CCOC(=O)Nc2ccc(Cl)cc2)N2CCOCC2)cc1 (stereo unspecified) | > 38 µM (inactive)
CCCCCC#CCC#CCC#CCC#CCCCC(=O)O | 6.71 µM
Cc1cccc(-n2c(O)c(C=Nc3ccc4c(c3)OCO4)c3ccccc3c2=O)n1 | 39 µM
Cc1ccc(N=Nc2c(O)n(CN3CCOCC3)c3ccccc23)cc1 | 11.4 µM
CN(C)c1ccc(/C=C/c2nc3ccccc3c(=O)[nH]2)cc1 | > 38 µM (inactive)
NC(=O)c1c(NC(=O)C2COc3ccccc3O2)sc2c1CCN(Cc1ccccc1)C2 (stereo unspecified) | > 38 µM (inactive)
O=C(NNc1ncnc2c1cnn2-c1ccc(F)cc1)c1ccco1 | 15.9 µM
O=C1C(Cl)=C(NC(=O)c2ccccc2)C(=O)C(Cl)=C1NC(=O)c1ccccc1 | < 0.3 µM
O=C(O)c1ccc(Cl)c2c1C1C=CCC1C(c1ccccn1)N2 (stereo unspecified) | 29 µM
CC(C(=O)Nc1ccc(C(=O)O)c(O)c1)N1C(=O)/C(=C\c2ccco2)SC1=S (stereo unspecified) | 19 µM
Cc1ccc(C2C(C(=O)c3cccs3)=C(O)C(=O)N2c2nnc(C)s2)cc1 (stereo unspecified) | 2.43 µM
O=C1c2cccc3c(N4CCCCC4)ccc(c23)C(=O)N1c1ccccc1O | 28.7 µM
C/C(=N/Nc1ccc(C(=O)O)cc1)c1ccc(O)c(O)c1O | 11.1 µM

Structure (SMILES) | AC50
CC1=C(C#N)c2nc(N)c(C#N)c(C)c2/C1=C\c1ccc(-c2ccccc2C(=O)O)o1 | 17.9 µM
O=c1c2ccccc2c(C=Nc2ccc(O)cc2)c(O)n1-c1nccs1 | > 38 µM (inactive)
Cc1ccccc1Nc1cc2ccccc2c(=O)[nH]1 | 14.3 µM
COc1ccccc1C(=O)Oc1ccc2c(c1)O/C(=C\c1ccncc1)C2=O | 10.8 µM
COc1ccc2c(c1)c1nc3ccccc3nc1n2Cc1ccc(OC(C)C)c(OC)c1 | 24.3 µM
O=C(C1=NN(c2ccccc2)C2C(=O)N(c3ccccc3)C(=O)C12)c1ccccc1 (stereo unspecified) | 32 µM
CCOc1cc(/C=C2\C(=O)N(c3cccc(C(=O)O)c3)N=C2C(F)(F)F)ccc1OCC(=O)Nc1ccccc1OC | 8.68 µM
Cc1cc(C)c2c3c(sc2n1)C(c1ccccc1)C(C#N)=C(N)O3 (stereo unspecified) | > 38 µM (inactive)
CN1C(=O)/C(=C/c2ccco2)SC1=Nc1cccc(C(=O)O)c1 | > 38 µM (inactive)
CCc1ccc(N2C(=O)NC(=O)/C(=C\c3cccn3CCOc3ccc(C(C)C)cc3)C2=O)cc1 | > 38 µM (inactive)
CCCN1CCN(S(=O)(=O)c2cn(C)nc2C)CC1 | 39.9 µM
COc1cc(N2CCCC2)c(OC)cc1/C=C(/C#N)c1cccc(Br)c1 | 10.3 µM
Cn1ncc2c(NNC(=O)c3ccc(Cl)cc3Cl)ncnc21 | 12.7 µM
CC1=C(C#N)C(=O)N(C2CCS(=O)(=O)C2)C(=O)/C1=C\c1ccco1 (stereo unspecified) | 3.22 µM
CN(C)c1ccc(N=Cc2nc(-c3ccccc3)oc2OC(=O)c2cccc(Br)c2)cc1 | > 38 µM (inactive)
O=C1/C(=C\c2ccc(Br)cc2)SC(=S)N1NS(=O)(=O)c1ccccc1 | 17.7 µM
O=C(O[C@@H]1OC2COC(=O)c3cc(O)c(O)c(O)c3-c3c(cc(O)c(O)c3O)C(=O)O[C@@H]([C@H]1O)[C@@H]2O)c1cc(O)c(O)c(O)c1 | 5.19 µM
Cc1cccc(C)c1NC(=O)/C(C#N)=C/c1ccc(-c2ccc(C(=O)O)cc2)o1 | > 38 µM (inactive)
CC1(C)CC2(CC(c3ccccc3F)c3ccc(O)c(O)c3O2)NC(=S)N1 (stereo unspecified) | 0.638 µM
CC(=O)Nc1ccc2cc3ccc(NC(C)=O)cc3nc2c1 | 10.9 µM
Cc1cc2ccccc2n1CCNC(=O)c1ccc(Br)o1 | > 38 µM (inactive)
COc1ccc(/C=C/C(=O)N/C(=C\c2ccco2)C(=O)NCCc2nc3ccccc3[nH]2)cc1 | > 38 µM (inactive)
O=C(CCCN1C(=O)/C(=C/c2ccccc2Cl)SC1=S)NNC(=O)c1ccc(Cl)cc1 | > 38 µM (inactive)
CN1CCN(c2nc(-c3ccccc3)nc(-c3ccccc3)c2C#N)CC1 | > 38 µM (inactive)
Cc1cc(=O)n2[nH]c(=O)c(N=Nc3ccccc3)c2[nH]1 | < 0.3 µM
Cc1cc(/C=C2\C(=O)NC(=O)N(Cc3ccccc3)C2=O)c(C)n1-c1ccc(Cl)c(C(=O)O)c1 | 33.2 µM

Structure (SMILES) | AC50
COCC(C)N1CCC(Oc2cccc(C(=O)NCCc3ccccc3)c2)CC1 (stereo unspecified) | > 38 µM (inactive)
Cc1cc2c(n1-c1ccc(C(=O)O)cc1)CCCCC2 | 9.57 µM
CCOC(=O)c1ccc(NC(=O)C(=O)NCc2ccc(/C=C(/C#N)C(=O)NCCOC)o2)cc1 | > 38 µM (inactive)
COc1ccc(C(=O)N2C(=S)NC(=O)/C2=C\c2ccc(C)cc2)cc1 | > 38 µM (inactive)
N#Cc1c(C#N)c(O)c2ccccc2c1O | 11.3 µM
O=C(N/N=C/c1sc(=O)[nH]c1-[n+]1ccccc1)c1ccccc1[O-] | 30.2 µM
COc1ccc(N/C=C/C(=O)c2ccc3c(c2)OCO3)cc1OC | > 38 µM (inactive)
Oc1sc(C=Nc2ccc(F)cc2)c2ccccc12 | 22.2 µM
CC(C)C1Nc2ccc(C(=O)O)cc2C2C=CCC21 (stereo unspecified) | > 38 µM (inactive)
COC(=O)COc1ccc(C2Nc3c(Cl)ccc(C(=O)O)c3C3C=CCC32)cc1 (stereo unspecified) | > 38 µM (inactive)
S=c1[nH]cnc2sc(Nc3ccccc3)nc12 | 27.4 µM
O=C(N/N=C/C1C(=O)NC(=S)N(c2ccccc2)C1=O)c1cc(Br)c(O)c(Br)c1 (stereo unspecified) | 13 µM
CCOC(=O)NNc1ccc2nonc2c1[N+](=O)[O-] | > 38 µM (inactive)
CCOC(=O)c1c(/N=C/C2C(=O)NC(=S)NC2=O)sc2c1CCC2 | 12.8 µM
Cn1nc([N+](=O)[O-])c(C(C#N)c2nc3ccccc3n2C)c(Cl)c1=O (stereo unspecified) | 22.9 µM
CCOc1ccc(/C=C/C(=O)c2c(O)c3ccccc3oc2=O)cc1 | > 38 µM (inactive)
COc1ccc(OC)c(N2C(=O)NC(=O)/C(=C/c3ccc([N+](=O)[O-])s3)C2=O)c1 | 22 µM
Nc1ccc(N(CCO)CCO)cc1 | > 38 µM (inactive)
O=C(O)c1ccc(NS(=O)(=O)c2ccc3c(c2)C(=O)c2ccccc2C3=O)cc1 | 28.4 µM
CNC(=O)c1c(NC(=O)c2ccc(S(=O)(=O)N(C)c3ccccc3)cc2)sc2c1CCN(C(C)C)C2 | 25.2 µM
Cc1ccc(C)n1C(Cc1ccccc1)C(=O)O (stereo unspecified) | 8.84 µM
CC(C)C[C@H](NC(=O)C1CC(=O)N(c2ccc3c(c2)OCO3)C1)C(=O)NC1CCCC1 (stereo partly specified) | 29.2 µM
CN(N=Nc1ccc([N+](=O)[O-])cc1)c1ccccc1 | 9.51 µM
